# Test system: excised human nerve tissue
# Test: Phage display selection on excised human nerve tissue (Nerve2, Nerve3), NextGen sequence counts
# Type: binding
# Conditions: unique sequence count (relative enrichment); peptides common to Nerve2, Nerve3 and Plated Nerve 2 sets
# Procedure: Several m13 phage libraries were constructed expressing randomized variants of a parent peptide (QVPWEEPYYVVKKS-SGGL; SEQ ID NO: 576). In particular, the first 14 amino acids of the parent peptide were randomized using degenerate oligonucleotide synthesis to obtain a diverse set of peptides with a mutation rate of about 50% per residue.
# To accomplish this, synthesis was carried out by the XXK codon design approach, where X is any base and K is G or T. To bias synthesis towards the parent sequence, synthesis was carried out at each X position with a mixture of about 70%-85% of the parent nucleotide and 15-30% of the remaining 3 nucleotides. The resulting molecules were inserted into fADL-1e (Antibody Design Laboratories), which is a type 3 phage display vector having a cloning site on the N-terminal side of the full-length gene III protein. The fusion proteins are directed to the periplasm by the PelB leader peptide, which is inserted in the vector […].
# Collectively, the phage display libraries used in the screens comprised about 600 million peptides, with sequencing analysis confirming a mutation rate of about 50% per residue.
# Phage libraries were independently processed, as follows, with five biological samples: two independent samples of excised human nerve tissue, one sample of a human nerve extract, and two independent samples of human muscle tissue, as follows:
# Excised Human Nerve Tissue: For each of the two independent samples, phage were processed through multiple cycles of selection, with representative phage being isolated and sequenced after each selection cycle. Specifically, for selection using human nerve tissue, a sample of […] tissue (2 mm by 2 mm) was washed prior to mixing and incubation with a phage library. After incubation, the mixture (containing mostly intact nerves with phage particles that had variable affinity for nerves) was centrifuged and the nerve pellet washed multiple times with PBS to remove phage with little or no affinity for nerve tissue. The pellet was homogenized and plated for titering and reamplification. Phage that were bound at each round were sequenced. NextGen sequencing of pools after 2, 3 and 4 rounds of selection were used to isolate candidate sequences that were further analyzed using bioinformatics.
# NextGen sequencing of pools after 2, 3 and 4 rounds of selection were used to isolate candidate sequences from each of the five samples. These five data sets were then analyzed as described in the next section.
# Peptide and vector sequences were translated starting at the first start codon in the nucleotide sequence. […] Trimmed peptides with identical sequences were combined and quantified according to their frequency (count).
# Following processing, an R script was written to merge the unique peptide sequences (with counts 6 or greater) from the 5 different data sets to analyze the overlap between nerve and muscle binding activity.
# For the single Nerve2, Nerve3, and Plated Nerve2 (pn2) subsets, the number of counts for each group was set at a threshold giving rise to at least 100 peptides. […] As highlighted in yellow in FIG. 1B, the representative group also included 6 unique peptides overlapping between nerve2 and nerve3, 200 unique peptides overlapping between nerve2 and plated nerve2 (at least 60 counts), 4 unique peptides overlapping between nerve3 and plated nerve2. Finally, as highlighted in green in FIG. 1B, the representative group also included […] common to the nerve2, nerve3, and plated nerve2 sets.
row,Substance,Count
1,1 (TIPYAEPYYVVRKY) [compound 1],711
2,2 (DFTMQEPYYAEKKT) [compound 2],593
3,3 (HVTWQEQYYVLKTP) [compound 3],371
4,4 (HVPGVDPYSVVKKF) [compound 4],368
5,5 (HVAFEQPDNVLVLY) [compound 5],357
6,6 (QVPTEVQFYLVKEP) [compound 6],337
7,7 (QLPSEQPCCVVKKY) [compound 7],329
8,8 (QDPWVTRYYIVKKS) [compound 8],304
9,9 (QVPAKEPYNFMKKS) [compound 9],299
10,10 (YLTWEEPEHVNKQS) [compound 10],272
11,11 (QVPRQELYYVSHQF) [compound 11],245
12,12 (QHPFEQSFYVVNKF) [compound 12],227
13,13 (DILLDELRFAEKHG) [compound 13],203
14,14 (YNLWDAPSYLVKNS) [compound 14],201
15,15 (HVAGGERYFSVKES) [compound 15],185
16,16 (HLPSDQPLSVTKIS) [compound 16],173
17,17 (GFLGEEPYHFLAKR) [compound 17],167
18,18 (LRSTADAHYTLKKS) [compound 18],152
19,19 (ATPCSQPCAVVPKF) [compound 19],142
20,20 (QYAWEEPYYLEKKL) [compound 20],140
21,21 (HLPVEYPFYVFKNS) [compound 21],131
22,22 (RGSLEGPFKLGKTH) [compound 22],130
23,23 (QVSSQEPNFIVKNN) [compound 23],116
24,24 (HFSAYEQYYVLRNS) [compound 24],111
25,25 (YVIKYAPYYAVTRS) [compound 25],93
26,26 (HLPEEELYTIVRKT) [compound 26],85
27,27 (QDPCVWPYNGVKKC) [compound 27],79
28,28 (HVHWDATYYAVTNS) [compound 28],77
29,29 (QFPYDHKNYVVKYS) [compound 29],69
30,30 (RFHMVGPYNVATTS) [compound 30],68

# Same assay, conditions: unique sequence count (relative enrichment); peptides overlapping between Nerve2 and Nerve3
row,Substance,Count
1,31 (HLPWEGQLNIGNKS) [compound 31],357
2,32 (DDLWQDLYGVVKKS) [compound 32],106
3,33 (NLAWAESKFLLEKI) [compound 33],71
4,34 (QLRYQEHYYLGYNS) [compound 34],56
5,35 (YVPWQEPYYVQKNL) [compound 35],49
6,36 (LVPWDETHKVVQRH) [compound 36],14

# Same assay, conditions: unique sequence count (relative enrichment); peptides overlapping between Nerve2 and Plated Nerve2
row,Substance,Count
1,41 (HSYREEPYYFGKRS) [compound 41],632
2,42 (QHTWKEPYNGQKRT) [compound 42],577
3,43 (QLPMGGPYERVNNT) [compound 43],380
4,44 (SVPKVHPYYVVNNS) [compound 44],333
5,45 (QVPTGEPLYPVQKT) [compound 45],323
6,46 (QLPSYQAHDVMKVH) [compound 46],308
7,47 (QIPSQRPSSVGAIA) [compound 47],292
8,48 (QFPGDERYYLATST) [compound 48],283
9,49 (HVSSQEPYYVLRNS) [compound 49],252
10,50 (RLPSDDHNTFGTRS) [compound 50],249
11,51 (QLHGDELLSVVKNP) [compound 51],232
12,52 (ATEWEESYFHVKKF) [compound 52],223
13,53 (RVPWEQSSWVVKRS) [compound 53],220
14,54 (QIANKEPHTYVENS) [compound 54],213
15,55 (QIRSEVTHSVVRES) [compound 55],213
16,56 (QHTLNHPYSVVKTS) [compound 56],205
17,57 (QVPSHELYFRPKES) [compound 57],204
18,58 (EVPGGVPYYPMKKF) [compound 58],201
19,59 (HVSGGQWVHGQKNS) [compound 59],200
20,60 (HVPSKQMNSLAKKS) [compound 60],196
21,61 (QIHFGEPNYVVKKS) [compound 61],194
22,62 (QFPWEGSYYTAKQS) [compound 62],193

row,Substance,Count
1,63 (QIPWGEAYQAEKIT) [compound 63],191
2,64 (VVPSNAQHLAPNMS) [compound 64],191
3,65 (HVAEAESYNVVKKT) [compound 65],187
4,66 (QIPCEGPYSGVQMC) [compound 66],186
5,67 (HITGGVPYPVVRDS) [compound 67],185
6,68 (HVLWEDSSYHVTHH) [compound 68],179
7,69 (HVTYDEQKYFVKKS) [compound 69],179
8,70 (QVPSVQPYYIGKNT) [compound 70],175
9,71 (QARFEQPYSGLRDS) [compound 71],167
10,72 (LIPSAYPHSLWSKS) [compound 72],166
11,73 (QLRSNEAYHVVKKS) [compound 73],166
12,74 (QTQMQEPKYGVSHS) [compound 74],163
13,75 (DVRWDEPYYVDEKI) [compound 75],161
14,76 (HVPRVEPYNVVTNY) [compound 76],158
15,77 (QFPGQALSFVHEKS) [compound 77],152
16,78 (HFPSKALNNTAKNT) [compound 78],151
17,79 (QFPPEQPYGLANKS) [compound 79],150
18,80 (HVPWAGRHYVAKHS) [compound 80],149
19,81 (RVAIDELYLIAHKS) [compound 81],147
20,82 (QIPEQQPYNVFKKS) [compound 82],142
21,83 (SIPGEDSLYAVTEH) [compound 83],142
22,84 (QCPSEQPNYVCKIF) [compound 84],140

row,Substance,Count
1,85 (HGQTQEPSYVTVYY) [compound 85],139
2,86 (HVHWQVPSNIVRNS) [compound 86],139
3,87 (QLPWYEADYRMEYY) [compound 87],139
4,88 (QLPSQAQNYYVTAS) [compound 88],137
5,89 (QVTSEEHYFAVKKF) [compound 89],136
6,90 (TSLSGAPFHNANTF) [compound 90],134
7,91 (HDASIALYDPVLMS) [compound 91],133
8,92 (QLPGDVTYNLGHKS) [compound 92],133
9,93 (QPTWEQPYHVDRNS) [compound 93],131
10,94 (HIPFPGLYSNLDQS) [compound 94],127
11,95 (DHPWDVRHYAHKKS) [compound 95],126
12,96 (DVPWKESFNIVENS) [compound 96],126
13,97 (QFARTAPYYVQTEY) [compound 97],125
14,98 (QNPWQKPYTVMKTS) [compound 98],123
15,99 (HLSFEEPLYGVKKS) [compound 99],122
16,100 (QFPSGHRVYTGKMT) [compound 100],122
17,101 (YNLYEQPYSVLKRS) [compound 101],122
18,102 (HLPSQVTHYVITSF) [compound 102],115
19,103 (QVPSHEPFYLGKKY) [compound 103],114
20,104 (RVTQGSPVYGENNA) [compound 104],114
21,105 (QIPMEETYSLRKMS) [compound 105],113
22,106 (QIPWEAPSYGATIS) [compound 106],113

# Same assay, conditions: unique sequence count (relative enrichment); peptides overlapping between Nerve3 and Plated Nerve 2
row,Substance,Count
1,37 (HVALEQPYYAVKES) [compound 37],342
2,38 (QVQCKEQYYGVTNC) [compound 38],195
3,39 (QALYAEPAYVSKKF) [compound 39],19
4,40 (HVSMDERYYVVKKT) [compound 40],17

# — patent US20240207422A1, “NERVE TARGETING PEPTIDE CONJUGATES AND METHODS OF USE” (Alume Biosciences, Inc., priority 2022, published 2024)
